The values that follow are results of earlier work, collected in patent US6562588B2, “Sialidase and recombinant cell lines” (Genentech, Inc., priority 1993, dated 2003).

What is called Ki is the equilibrium dissociation constant of an inhibitor or competing ligand from its target.

The target in data set [1] is cytosolic sialidase from rat muscle (Rattus norvegicus, UniProt Q64627). The note with it: read-out: Ki, rat muscle sialidase (Cytosol).
Data set [2] addresses T1, lysosomal sialidase (Fibroblasts) (Homo sapiens, UniProt Q99519).
T1 construct: host or cells: fibroblasts
The note with it: read-out: Ki, fibroblast sialidase (Lysosome).

For data set [3], the system named is plasma membrane sialidase (Adenovirus Transformed Kidney Cells). The note with it: read-out: Ki, adenovirus transformed kidney cell sialidase (Plasma Membrane).

Where two headings read alike, the source gives them in different places.

Chain of cytosolic sialidase from rat muscle (Q64627 whole entry): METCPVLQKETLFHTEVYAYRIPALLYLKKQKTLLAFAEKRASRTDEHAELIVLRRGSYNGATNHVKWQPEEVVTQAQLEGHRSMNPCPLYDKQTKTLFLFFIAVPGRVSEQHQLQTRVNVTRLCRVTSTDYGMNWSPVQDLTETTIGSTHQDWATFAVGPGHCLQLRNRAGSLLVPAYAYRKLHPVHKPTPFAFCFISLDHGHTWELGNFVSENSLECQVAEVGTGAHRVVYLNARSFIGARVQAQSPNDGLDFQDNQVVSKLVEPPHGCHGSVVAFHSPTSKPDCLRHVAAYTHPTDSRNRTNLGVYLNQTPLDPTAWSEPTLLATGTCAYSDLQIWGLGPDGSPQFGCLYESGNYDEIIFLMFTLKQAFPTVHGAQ

With `CC(=O)N[C@H]1[C@H]([C@H](O)[C@H](O)CN=[N+]=[N-])OC(C(=O)O)=C[C@@H]1O` [9-Azido Neu5Ac2en, 5-acetamido-2,6-anhydro-9-azido-3,5,9-trideoxy-D-glycero-D-galacto-non-2-enonic acid], the Ki in data set [1] is 50 µM; in data set [2], 10 µM; in data set [3], 10 µM.

For the compound `CC(=O)N[C@H]1[C@H]([C@H](O)[C@H](O)CSc2ccc(N=[N+]=[N-])cc2[N+](=O)[O-])OC(C(=O)O)=C[C@@H]1O` [9-S-PANP Neu5Ac2en, 9-S-(4′-azido-2′-nitro-phenyl)-5-acetamido-2,6 anhydro-9-thio-2,5,9-trideoxy-D-glycero-D-galacto-non-2-enonic acid], the inhibitory constant (Ki) in data set [1] (4-MU-Neu5Ac as substrate, previously reported data) was over 50 µM.
